Assay results from article PMC6940354, “Comparative Assessment of the New PDE7 Inhibitor – GRMS-55 and Lisofylline in Animal Models of Immune-Related Disorders: A PK/PD Modeling Approach” (Pharmaceutical Research, 2020).
In brackets after ≈: the same amount, converted by molar mass. Read-outs that look alike come from different tables or passages of the source.

Key:
[1] = test system: TNF-α release from LPS-stimulated whole rat blood; experiment: Inhibition of LPS-induced TNF-α release in whole rat blood; assay type: cell-based
Experimental: Stimulation of whole rat blood by LPS was performed on 96-well plates. […] Contents of each well (200 μL) consisted of heparinized rat blood containing 10 U heparin mL^−1 diluted with RPMI-1640 medium at a ratio of 1:1 (v/v). All compounds were dissolved in DMSO and added to blood (the final DMSO concentration in blood was 0.5%) 15 min prior to the addition of LPS dissolved in RPMI-1640 medium to achieve the LPS concentration of 10 mg L^−1. Both, LPS and DMSO were also added to control wells at the same concentrations. Additional control samples (for testing baseline TNF-α levels in blood) consisted of DMSO (0.5%) without LPS. The incubation was performed at 37°C in a humidified atmosphere of 5% CO2 in an MCO-5 AC-PE incubator (PHCbi, Japan). After 6 h of incubation, the plates were centrifuged for 10 min using PlateFuge MicroCentrifuge (Benchmark Scientific, USA). The individual plasma samples were harvested and stored at −80°C until analysis.
(§1) TNF-α levels in LPS-stimulated rat blood in vitro and in rat plasma samples from the in vivo studies were analyzed by the Rat TNF-α Quantikine ELISA Immunoassay Kit (R&D Systems, USA) according to the manufacturer’s instructions. The assay was linear at the range of 12.5–800 pg mL^−1. Levels of TNF-α in mice serum were measured by ELISA Kits for Tumor Necrosis Factor Alpha (Cloud-Clone Corp., USA). This assay was linear at the range of 15.6–1000 pg mL^−1. Absorbance was measured at 450 nm using a POLARstar Omega multi-mode microplate reader (BMG LABTECH, Germany).

[2] = test system: TNF-α plasma levels in male Wistar rats with LPS-induced endotoxemia; experiment: LPS-induced endotoxemia in rats, PK/PD model of plasma TNF-α; assay type: in vivo, rat; details: for IC50: Rattus norvegicus, iv; for activity in inhibiting TNF-α release in vivo, times lower than that of rolipram: ratio of IC50 values to rolipram
Experimental: Male Wistar rats were implanted with catheters (SAI Infusion Technologies, USA) into the jugular vein and after a two-day recovery period they were administered with LPS dissolved in saline at a dose of 1 mg kg ^−1 into the tail vein simultaneously with one of the investigated compounds. […] The doses of the compounds were selected based on the literature data or results of our previous experiments. Each control group received LPS at the same IV dose and an appropriate volume of corresponding vehicle. […] The plasma samples were collected and stored at −80°C until analysis.
as §1
PK/PD and PK/PD/DIS progression models were developed considering the mechanism of action of the investigated compounds, the mechanisms of disease progression in the case of CIA, and the subsequent stages leading to TNF-α release in the case of LPS-induced endotoxemia. Various numbers of transit compartments were tested during development of the models, and the final models were chosen based on the goodness-of-fit criteria, such as AIC, SBC, a visual inspection of the fitting, and parameter precision. Estimated values of pharmacokinetic parameters were fixed during PK/PD and PK/PD/DIS progression model fitting procedures. […] PK/PD and PK/PD/DIS progression modeling were performed in ADAPT 5 software using the weighted least squares algorithm.
Therefore, as a result of PK/PD analysis, three sets of pharmacodynamic parameters were obtained based on the data from the three individual experiments.
The applied model is a modified indirect response model ([19]) with implemented transit compartments (T1-T4) that describe the delay of the observed pharmacodynamic response. In this scheme τ is the mean transit time, kin is the time limited (from 0 to tlag) zero-order rate constant of production of a TNF-α precursor (e.g., TNF-α mRNA). Different numbers of transit compartments were tested during the model development, but the best fit was observed using four transit compartments.
All Imax values were fixed to 1.

[3] = test system: collagen-induced arthritis (CIA) in female Lewis rats; experiment: Histological evaluation of ankle cross-sections from CIA rats; assay type: in vivo, rat; details: multiple administration, compared to vehicle control
Experimental: At a day 0 of the experiment animals were subcutaneously (SC) injected at the base of the tail with 200 μL of the emulsion using a 27 gauge × 5/8″ needle and Hamilton syringe. At day 7 after the initial immunization, a booster injection with 100 μL of emulsion was performed. Ninety % of rats developed symptoms of disease (paw swelling >150% of day 0) at day 20 of the experiment. At this day, diseased animals were randomly divided into five groups (n = 6). […] One investigated group received (±)-LSF dissolved in saline at an SC dose of 80 mg kg^−1 once daily. The corresponding control groups were administered with appropriate volumes of vehicles IP or SC. At day 40 animals were sacrificed. Hind paws of rats were taken and immersed into 4% buffered formalin solution for a subsequent histological analysis. Blood samples were collected and allowed to clot for 20 min and then centrifuged at 2000 x g for 15 min. Serum samples were collected and frozen at -80°C.
The morphological studies were performed with the imaging CellSens Dimention (Olympus) software. Osteoarthritis histopathology was assessed based on the symptoms associated with synovial inflammation, chondropathy, and subchondral osteoarthritis. Synovitis index estimation involved synovial inflammation, synovial lining thickness, dense of cellularity, and presence of perivascular lymphoid aggregates, where normal synovium (score 0) is defined as thin linning with sparse cellular distribution and no/few inflammatory cells, mild and moderate synovial inflammation (score 1 to 2) indicate thickness of linning with dense cellularity with inflammatory cells, and severe inflammation (score 3) means hypervascular synovitis containing lymphoid aggregates. Two aspects of chondropathy were graded: surface integrity and chondrocyte yielding score 0 for normal morphology to score 3 for chondral lesion with chondrocyte hypercellurarity and/or cloning, and complete cartilage surface integrity loss. Subchondral plate thickening, bone trabeculae deterioration, bone marrow lesion (bone pseudocysts - cavitary lesion formation) associated with fibrovascular replacement of marrow spaces were accounted for subchondral osteoarthritis with grading score from 0 to 3 in severe lesion. The sample preparation procedure for histological evaluation is described in the supplementary materials.
The hind paws were cut about 0.5 cm above the rat joint. Then the joints were fixed in 4% buffered formalin for one week, decalcified, dehydrated in ethanol solutions of increasing concentrations, and embedded in the paraffin blocks. Subsequently, paws were serially cut at 6-μm thickness using a rotational microtome Leica RM 2145 type and stained with Masson's Trichrome. Digital images were taken using a computerized digital camera (Olympus UC90, Olympus).

[4] = LPS 10 mg L^−1, 6 h incubation, compared to LPS-treated control
[5] = read-out: IC50, concentration of compound producing 50% of Imax (inhibition of TNF-α release in vivo), Final estimate (CV%), plasma concentration, PK/PD model, Imax fixed to 1, male Wistar rats, LPS 1 mg kg^−1 IV, IV GRMS-55 20, rolipram 5, (±)-LSF and PTX 40 and 80 mg kg^−1

CC(O)CCCCn1c(=O)c2c(ncn2C)n(C)c1=O (racemic) [(±)-LSF, lisofylline]
Reduction of TNF-α levels in LPS-stimulated whole rat blood (result in words) [1, 4]: significantly and with similar potency reduced | IC50 [2, 5]: 5.8 µg/mL (≈ 20.7 µM) | potency in inhibiting TNF-α release in vivo, times stronger than PTX ([2]; ratio of IC50 values): ~ 2.4 times | activity in inhibiting TNF-α release in vivo, times lower than that of rolipram [2]: ~ 16 times | chondritis / articular cartilage, histological score (result in words) [3]: attenuated | subchondral osteoarthritis, histological score (result in words) [3]: failed to significantly diminish | synovitis / synovial inflammation, histological score (result in words) [3]: significant alleviation

Cn1c(=O)c2c(nc(NCCc3ccccc3)n2CCCC(=O)NN=Cc2ccccc2O)n(C)c1=O [GRMS-55, 4-(1,3-Dimethyl-2,6-dioxo-8-(phenethylamino)-2,3,6,7-tetrahydro-1H-purin-7-yl)-N′-(2-hydroxybenzylidene)butanehydrazide]
Reduction of TNF-α levels in LPS-stimulated whole rat blood (result in words) [1, 4]: did not exhibit activity | Inhibition of TNF-α release in LPS-stimulated whole rat blood (result in words) ([1]; levels of 50 and 250 μM, compared to the control wells): failed to inhibit TNF-α release | IC50 [2, 5]: ~1.1 µg/mL (≈ 2.18 µM) | activity in inhibiting TNF-α release in vivo, times lower than that of rolipram [2]: ~ 3 times | chondritis / articular cartilage, histological score (result in words) [3]: attenuated | subchondral osteoarthritis, histological score (result in words) [3]: attenuated | synovitis / synovial inflammation, histological score (result in words) [3]: significant alleviation

COc1ccc(C2CNC(=O)C2)cc1OC1CCCC1 (stereo not shown) [Rolipram, rolipram]
Reduction of TNF-α levels in LPS-stimulated whole rat blood (result in words) ([1]; concentration of 50 μM, compared to the control group): completely reduced | IC50 ([2]; read-out: IC50, concentration of compound producing 50% of Imax (inhibition of TNF-α release in vivo), Final estimate (CV%)): 0.36 µg/mL (≈ 1.31 µM) | chondritis / articular cartilage, histological score (result in words) [3]: significant amelioration | subchondral osteoarthritis, histological score (result in words) [3]: significant amelioration | synovitis / synovial inflammation, histological score (result in words) [3]: significant amelioration
